Results as given in patent US20160184795A1, “METHODS AND SYSTEMS FOR […]” (SHELL OIL COMPANY, priority 2014, published 2016).
“And” between values parts separate entries of the source, which are not always exact repeats. Identical values can stand only once.

Assay: Solubility of alkylphenol in water at digestion conditions
Assay type: physicochemical
Settings: 240 C, 15 bar N2, 30 g xylenol + 30 g deionized water, phases separated hot, consecutive samples via bottom dip tube
From the text: Stirring was stopped, and phases were allowed to separate while hot, before sampling of all reactor contents via consecutive withdrawal of samples via a bottom dip tube.

Cc1cccc(C)c1O [xylenol, 2,6-dimethylphenol]
weight fraction of xylenol in water, individual samples withdrawn: 18.6 weight percent and 26 weight percent and 32 weight percent
